Measured values: ChEMBL document CHEMBL1201862, “PubChem BioAssay data set” (2004)
Blank lines part the entries; values can stand above or below the compound they belong to. The source made the active and inactive calls.

What was measured:
Vero = assay: viability of Vero cells under compound – cytotoxicity control for flavivirus capping enzyme inhibitors (AID 588742); assay type: functional; settings: Chlorocebus sabaeus
Cytochrome P450 2C9 = Cytochrome P450 2C9 (Homo sapiens, UniProt P11712)
[1] = off-target signal loss in HeLa-CEM21 co-culture – HeLa F-luc CTL cells, cherry-picked, counter-screen for HIV-1 Env fusion inhibitor project, dose response (AID 652040); assay type: functional, cell-based;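 further: potency for signal decrease marking cytotoxic or nonspecific inhibition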
[2] = HIV-1 AD8 envelope cell-cell fusion blockers – cherry-pick, dose response (AID 652062); assay type: functional, cell-based;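 further: luciferase signal from cell-cell fusion driven by HIV-1 clade B AD8 Env; potency is for inhibitors of fusion seen as a drop in luminescence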
[3] = blockers of HIV-1 envelope-mediated cell-cell fusion – cherry-pick, dose response (AID 652057); assay type: functional, cell-based
[4] = blockers of HIV-1 ZM109 envelope-driven cell-cell fusion – HeLa effector, CEM target cells, luciferase, cherry-pick, dose response (AID 652058); assay type: functional, cell-based;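 further: luciferase signal from HIV-1 Env mediated cell-cell fusion of effector and target cells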
[5] = target: T1, DNA repair protein RAD52 homolog (Homo sapiens, UniProt P43351); assay type: functional, biochemical
T1 sequence (P43351 whole entry): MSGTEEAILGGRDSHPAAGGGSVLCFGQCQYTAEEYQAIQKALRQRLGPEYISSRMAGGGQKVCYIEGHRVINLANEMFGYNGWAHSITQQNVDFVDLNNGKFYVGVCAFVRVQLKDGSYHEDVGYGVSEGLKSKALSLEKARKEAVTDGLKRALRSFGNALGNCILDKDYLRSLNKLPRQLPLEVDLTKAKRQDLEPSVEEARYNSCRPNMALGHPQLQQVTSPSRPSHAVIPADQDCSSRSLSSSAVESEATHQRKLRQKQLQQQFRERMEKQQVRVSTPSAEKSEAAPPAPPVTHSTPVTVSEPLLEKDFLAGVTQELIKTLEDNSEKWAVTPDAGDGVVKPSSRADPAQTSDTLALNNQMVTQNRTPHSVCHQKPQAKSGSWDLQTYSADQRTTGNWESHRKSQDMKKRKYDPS

[6] = target: T2, Rac GTPase-activating protein 1 (Homo sapiens, UniProt Q9H0H5); assay: blockers of MgcRacGAP-driven Rac1 GTP hydrolysis – biochemical, ADP Hunter fluorescence, primary and confirmatory, confirmation (AID 624330); assay type: functional
T2 sequence (Q9H0H5 whole entry): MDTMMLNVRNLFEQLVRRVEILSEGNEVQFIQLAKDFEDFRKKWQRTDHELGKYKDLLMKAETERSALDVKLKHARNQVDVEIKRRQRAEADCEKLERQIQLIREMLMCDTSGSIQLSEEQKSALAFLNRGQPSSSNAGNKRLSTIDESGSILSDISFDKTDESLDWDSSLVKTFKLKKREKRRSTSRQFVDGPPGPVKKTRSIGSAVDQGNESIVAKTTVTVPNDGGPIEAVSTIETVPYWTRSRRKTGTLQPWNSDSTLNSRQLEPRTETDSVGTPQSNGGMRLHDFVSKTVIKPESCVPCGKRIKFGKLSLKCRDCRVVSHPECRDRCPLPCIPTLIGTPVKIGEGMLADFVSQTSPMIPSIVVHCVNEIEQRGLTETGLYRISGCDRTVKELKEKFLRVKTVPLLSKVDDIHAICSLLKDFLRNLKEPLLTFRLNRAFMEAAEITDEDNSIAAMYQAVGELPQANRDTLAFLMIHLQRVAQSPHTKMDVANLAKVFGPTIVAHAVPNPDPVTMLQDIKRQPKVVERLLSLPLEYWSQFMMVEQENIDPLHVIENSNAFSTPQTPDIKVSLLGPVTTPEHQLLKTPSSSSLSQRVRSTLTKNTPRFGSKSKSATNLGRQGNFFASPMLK

[7] = activation of miR-122 Renilla sensor silencing – cell-based, Huh7 psiCHECK-miR122, Renilla luciferase, cherry-picked, dose response (AID 651956); assay type: functional;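 further: huh7 hepatoma cells stably carrying a psiCHECK-2 miR-122 sensor plasmid; renilla luciferase signal reporting endogenous miR-122 activity after 48 h compound exposure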
Paired box protein Pax-8 = Paired box protein Pax-8 (Homo sapiens, UniProt Q06710); assay: PAX8 transcriptional activity inhibition in RMG-I – RMG-I cells, luciferase, cherry-pick, dose response (AID 687027); assay type: functional, cell-based;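 further: luciferase reporter driven by Pax8 target thyroperoxidase promoter measured by SteadyGlo luminescence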
[8] = OVCAR8 cell viability loss – plate reader, dry powder samples, PAX8 project, dose response (AID 743197); assay type: functional, cell-based; settings: OVCAR-8
[9] = OVCAR-3 cell viability loss – plate reader, dry powder samples, PAX8 inhibitor project, dose response (AID 743044); assay type: functional, cell-based
[10] = target: 5-hydroxytryptamine receptor 2A (Mus musculus, UniProt P35363); assay type: functional, cell-based;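 further: CHO-K1 cells with tagged receptor and beta-arrestin; agonist potency measured as compound-induced activation of the receptor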
Mu-type opioid receptor = Mu-type opioid receptor (Homo sapiens, UniProt P35372); assay type: functional, cell-based;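 further: U2OS cells with beta-arrestin recruitment to OPRM1 by beta-gal complementation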
Sequence of Mu-type opioid receptor (P35372 whole entry): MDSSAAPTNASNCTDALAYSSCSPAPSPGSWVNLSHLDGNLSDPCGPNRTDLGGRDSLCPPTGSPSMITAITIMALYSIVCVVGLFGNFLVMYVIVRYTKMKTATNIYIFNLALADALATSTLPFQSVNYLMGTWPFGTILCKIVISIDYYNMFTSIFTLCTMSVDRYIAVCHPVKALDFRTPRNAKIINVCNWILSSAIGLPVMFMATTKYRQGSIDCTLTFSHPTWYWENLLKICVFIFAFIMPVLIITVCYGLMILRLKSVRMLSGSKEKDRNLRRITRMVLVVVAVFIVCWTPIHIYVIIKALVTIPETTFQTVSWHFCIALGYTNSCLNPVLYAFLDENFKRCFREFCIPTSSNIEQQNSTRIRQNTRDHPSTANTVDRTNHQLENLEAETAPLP

Sequence of 5-hydroxytryptamine receptor 2A (P35363 whole entry): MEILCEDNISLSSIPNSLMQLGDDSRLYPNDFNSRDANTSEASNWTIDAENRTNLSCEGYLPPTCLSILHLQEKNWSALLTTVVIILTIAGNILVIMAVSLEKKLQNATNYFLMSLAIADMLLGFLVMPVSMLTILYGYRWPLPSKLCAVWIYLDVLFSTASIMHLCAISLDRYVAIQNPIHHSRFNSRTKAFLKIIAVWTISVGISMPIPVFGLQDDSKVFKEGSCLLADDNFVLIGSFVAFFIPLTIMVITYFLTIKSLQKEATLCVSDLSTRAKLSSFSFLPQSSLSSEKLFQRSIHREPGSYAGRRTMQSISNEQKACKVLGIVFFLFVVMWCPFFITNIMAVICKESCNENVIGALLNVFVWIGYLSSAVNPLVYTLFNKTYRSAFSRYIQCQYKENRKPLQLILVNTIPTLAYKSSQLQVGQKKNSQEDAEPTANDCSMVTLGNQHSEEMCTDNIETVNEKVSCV
Sequence of Paired box protein Pax-8 (Q06710 whole entry): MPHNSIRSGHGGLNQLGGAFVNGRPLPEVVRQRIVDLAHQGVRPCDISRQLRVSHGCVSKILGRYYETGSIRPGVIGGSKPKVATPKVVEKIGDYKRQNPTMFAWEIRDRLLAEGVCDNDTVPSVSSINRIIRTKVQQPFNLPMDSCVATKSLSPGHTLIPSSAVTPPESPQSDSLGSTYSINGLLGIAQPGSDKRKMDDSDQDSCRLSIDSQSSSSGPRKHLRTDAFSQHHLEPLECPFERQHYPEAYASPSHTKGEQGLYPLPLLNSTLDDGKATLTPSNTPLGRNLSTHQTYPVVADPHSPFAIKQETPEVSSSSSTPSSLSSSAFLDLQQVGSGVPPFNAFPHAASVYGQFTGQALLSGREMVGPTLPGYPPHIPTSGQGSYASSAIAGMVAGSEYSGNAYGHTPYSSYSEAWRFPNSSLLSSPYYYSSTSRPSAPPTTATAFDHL
Sequence of Cytochrome P450 2C9 (P11712 whole entry, the tested form may be a part): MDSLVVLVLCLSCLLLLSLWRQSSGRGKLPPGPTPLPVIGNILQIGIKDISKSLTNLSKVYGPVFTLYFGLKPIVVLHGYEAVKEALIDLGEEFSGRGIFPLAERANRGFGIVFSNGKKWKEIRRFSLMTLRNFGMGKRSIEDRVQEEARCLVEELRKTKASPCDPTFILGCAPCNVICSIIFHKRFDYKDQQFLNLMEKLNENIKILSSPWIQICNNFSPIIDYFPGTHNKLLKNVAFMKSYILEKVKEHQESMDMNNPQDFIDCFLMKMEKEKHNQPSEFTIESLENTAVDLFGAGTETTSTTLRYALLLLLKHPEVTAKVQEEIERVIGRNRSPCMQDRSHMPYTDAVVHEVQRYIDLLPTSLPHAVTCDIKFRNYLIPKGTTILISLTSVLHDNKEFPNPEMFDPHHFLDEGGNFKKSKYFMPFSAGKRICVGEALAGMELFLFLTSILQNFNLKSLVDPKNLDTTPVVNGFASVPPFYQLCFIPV

AC50 (Cytochrome P450 2C9): inconclusive
Compound: CCC(C)(C)n1nnnc1C(C(C)C)N(Cc1ccco1)Cc1cc2cc3c(cc2nc1O)OCO3 (stereo not drawn)
CC50 (Vero): > 40 µM (active)

Compound: COc1ccccc1C(=O)NC(CCSC)C(=O)N1CCN(C/C=C/c2ccccc2)CC1 (stereo not drawn)
AC50 [1]: 10.7 µM (active)
AC50 [2]: 12.8 µM (active)
AC50 [3]: 4.51 µM (active)
AC50 [4]: 2.79 µM (active)

AC50 [5]: 25.6 µM (active)
IC50 [6]: 21.6 µM (active)
Compound: CC1(C)Nc2cccc3cccc(c23)N1

Compound: CCCC#Cc1ccc2c(c1)O[C@H](CN(C)C(=O)COC)[C@H](C)CN([C@@H](C)CO)S2(=O)=O
AC50 [7]: 1.19 µM (active)

Compound: C[C@@H]1CN([C@H](C)CO)S(=O)(=O)c2ccc(-c3ccccc3)cc2O[C@@H]1CN(C)C(=O)c1ccc2c(c1)OCO2
AC50 [7]: 27.2 µM (active)

Compound: COc1cccc(C#Cc2ccc3c(c2)O[C@@H](CN(C)C(=O)c2ccccn2)[C@H](C)CN([C@@H](C)CO)S3(=O)=O)c1
AC50 (Paired box protein Pax-8): 5.17 µM (active)
AC50 [8]: 34.1 µM (active)
AC50 [9]: 41.2 µM (active)

Compound: Cc1ccc(S(=O)(=O)Nc2ccc3c(c2)CC(=O)N([C@H](C)CO)C[C@H](C)[C@H](CN(C)S(=O)(=O)c2ccccc2)O3)cc1
AC50 [2]: 3.38 µM (active)
AC50 [3]: 0.877 µM (active)
AC50 [4]: 2.46 µM (active)

Compound: C[C@H]1CCCCO[C@H](CN(C)Cc2ccc(C(F)(F)F)cc2)[C@@H](C)CN([C@@H](C)CO)C(=O)c2cc(NS(=O)(=O)c3cccs3)ccc2O1
AC50 (Paired box protein Pax-8): 5.95 µM (active)
AC50 [8]: > 70 µM (inactive)
AC50 [9]: 37.6 µM (active)

Compound: CCCN(CCC)C1CCc2cccc(O)c2C1 (stereo not drawn)
EC50 [10]: 2.3 µM (active)
EC50 (Mu-type opioid receptor): 92.5 µM (inactive)

EC50 [10]: 5.34 µM (active)
EC50 (Mu-type opioid receptor): 92.6 µM (inactive)
Compound: CC(C(=O)O)c1ccc(C(=O)c2cccs2)cc1 (stereo not drawn) [SUPROFEN]
